Data reported in US20130136724A1, “PIG FEED, AND METHOD FOR FEEDING SAME” (Kaneka Corporation, priority 2010, published 2013).

Assays:
Assay type in all cases: in vivo, swine
mother sows [1] = assay: Coenzyme Q10 fed to mother sows in middle or late pregnancy, growth of postnatal piglets (Example 3)
Description: Test groups A to D were fed with feeds prepared by adding coenzyme Q10 at 100 ppm or 400 ppm to a normal feed for mother sows (crude protein 15.0% or more, crude fat 2.0% or more, crude fiber 5.0% or less, crude ash 8.0% or less, calcium 0.6% or more, phosphorus 0.4% or more, TDN 74.0% or more) in middle pregnancy (test groups A and B) or late pregnancy (test groups C and D), and were fed only with the normal feed for mother sows in the other periods. A control group was fed only with the normal feed for mother sows throughout the entire pregnancy period. Here, the term of “middle pregnancy” refers to the period from the 39th day until the 76th day after mating, and the term of “latter pregnancy” refers to the period (about 38 days) from the 77th day after mating until parturition. The test continued for about five and a half months. Also, coenzyme Q10 was not administered to the mother sows during lactation and the piglets born to the mother sows. As for head count of mother sows, each of control and test groups consisted of five mother sows per test, and the same test was repeated three times. Consequently, […]. Primiparous sows were not used, and only multiparous sows (para 2 to 10) were used for the test. A coenzyme Q10-containing premix was prepared by adding coenzyme Q10 to defatted rice bran to be a concentration of 1/60, and was mixed with the normal feed with a measuring spoon (15 g/spoon) to the above-mentioned coenzyme Q10 concentrations. The feeds thus prepared were fed in a common manner. The average amount of the feed per mother sow was 2.5 kg/day in all the groups. The mother sows and the piglets born to the mother sows were reared in accordance with rearing management standards of the farm. The piglets born to the mother sows of the respective groups were evaluated for weight at birth, weight at weaning, and the like.

[2] = Coenzyme Q10 content in colostrum of mother sows by HPLC (Example 1); conditions: colostrum (first day) of mother sows, 60 ppm in feed, vs periods without administration
Protocol: About 160 mother sows from an actual swine farm were used and the study group was fed with feeds (coenzyme Q content in all feeds: 60 ppm) which were prepared by mixing coenzyme Q10 in normal feeds for mother sows (“ecobreed” during pregnancy, “ecolitter” during lactation). This feed test continued for eight months in which feeding to all the mother sows was simultaneously started and simultaneously finished. Before and after the test period, only the original feeds for mother sows were fed. […] Additionally, in order to analyze the coenzyme Q10 content in milk of mother sows during lactation, about 15 ml of colostrum (first day) were sampled in a 50-ml disposal tube from six mother sows during lactation in the periods in which coenzyme Q10 was administered to them or the periods in which coenzyme Q10 was not administered to them, and the samples were analyzed for coenzyme Q10 and the ratio of the reduced form and the oxidized form of coenzyme Q10 by HPLC.

mother sows [3] = assay: Feed test in mother sows, coenzyme Q10 60 ppm in feeds for eight months (Example 1)
Protocol: About 160 mother sows from an actual swine farm were used and the study group was fed with feeds (coenzyme Q content in all feeds: 60 ppm) which were prepared by mixing coenzyme Q10 in normal feeds for mother sows (“ecobreed” during pregnancy, “ecolitter” during lactation). This feed test continued for eight months in which feeding to all the mother sows was simultaneously started and simultaneously finished. Before and after the test period, only the original feeds for mother sows were fed. In this test of feeding to the sows at pregnancy period, as the pregnancy period of sows continues 114 days and the interval to the next conception after parturition is about 31 days, it is apparent that in this test, coenzyme Q10 was administered to the mother sows in various stages of pregnancy or lactation which include a specific period in latter pregnancy, the entire pregnancy period, periods prior to or after mating, and a period from mating to early pregnancy. The mother sows were reared and managed in a common manner. In order to confirm that coenzyme Q10 was mixed in the feeds for mother sows, about 100 g of each coenzyme Q10-containing test feed were sampled from three points of different feeders after one week from the preparation thereof in the test period and the each sample was analyzed.

mother sows [4] = assay: Coenzyme Q10 fed to mother sows in early, middle or latter pregnancy, farrowing rate and number of weaned piglets (Example 4); conditions: for Number of weaned piglets (average per mother sow): 100 ppm in feed of mother sows
Description: Test groups E to G were fed with a feed prepared by adding coenzyme Q10 at a concentration of 100 ppm to a normal feed for mother sows (crude protein 15.0% or more, crude fat 2.0% or more, crude fiber 5.0% or less, crude ash 8.0% or less, calcium 0.6% or more, phosphorus 0.4% or more, TDN 74.0% or more) in early pregnancy period (test group […]), middle pregnancy period (test group F) or latter pregnancy period (test group G), and were fed only with the normal feed for mother sows in the other periods. A control group was fed only with the normal feed for mother sows throughout the entire pregnancy period. The “early pregnancy” refers to the period from mating until the 38th day, the “middle pregnancy” refers to the period from the 39th day until the 76th day after mating, and the “latter pregnancy” refers to the period (about 38 days) from the 77th day after mating until parturition. Although whether sows are pregnant can be determined by sonography generally on the 25th or 26th day after mating, the test feeding was started without checking whether the mother sows were pregnant in this test. Sows that were found not to be pregnant later were eliminated from the test. Coenzyme Q10 was not administered to the mother sows during lactation and piglets born to the mother sows. Each of control and test groups consisted of five mother sows per test, and the same test was repeated three times. Consequently, 15 sows in total were tested per group. Primiparous sows were not used, and only multiparous sows (para 2 to 10) were used for the test. A coenzyme Q10-containing premix was prepared by adding coenzyme Q10 to defatted rice bran to a concentration of 1/60. This premix was added to the normal feed with a measuring spoon (15 g/spoon) to the above-mentioned coenzyme Q10 concentrations. The feeds thus prepared were fed in a common manner. The amount of the feed fed to each mother sow was 2.5 kg/day in average in all the groups. The mother sows and piglets born to the mother sows were reared in accordance with rearing management standards of the farm. The respective groups were evaluated based on the number of piglets (the number of total births) per mother sow, and the number of living piglets among them (the number of live births), and the number of piglets that survived to weaning (the number of weaned piglets).

mother sows [5] = assay: Interval of recurrent estrous of coenzyme Q10-fed mother sows (Example 6); conditions: 100 ppm in feed
Protocol: A coenzyme Q10-fed test group was fed with a feed prepared by adding coenzyme Q10 at a concentration of 100 ppm to a normal feed for mother sows (Kyodo Shiryo Co., Ltd.) for a test period (four months). A control group was fed with only the normal feed for mother sows. Estrous cycles were evaluated by observing whether sows were in estrus for three months from one month after the start of the test until the end of the test. The test group consisted of 1055 mother sows, and the control group consisted of 1022 sows.

mother sows [6] = assay: Fertility of second mating of coenzyme Q10-fed mother sows (Example 5); conditions: 100 ppm in feed, four months, pregnancy determined on the 28th day after second mating
Protocol: A coenzyme Q10-fed test group was fed with a feed prepared by adding coenzyme Q10 at a concentration of 100 ppm to a normal feed for mother sows (Kvodo Shiryo Co., Ltd.) for a test period (four months). A control group was fed with only the normal feed for mother sows. The sows were tested for pregnancy on the 28th day after mating, and unfertilized sows were mated again. The fertility was evaluated as a pregnancy rate for three months from one month after the start of the test until the end of the test. Whether the sows were pregnant (fertilized) was determined by sonography or the like on the 28th day after first mating and second mating. The test group consisted of 952 mother sows, and the control group consisted of 992 mother sows.

piglets = assay: Feeding coenzyme Q10 to piglets of coenzyme Q10-fed mother sows through weaning, piglet and fattening periods (Example 2); conditions: piglets fed about 80 ppm in weaning period feed, vs control group
Description: The piglets of the mother sows to which coenzyme Q10 had been administered in the test of Example 1 were fed with the following feeds: a feed prepared by adding coenzyme Q10 at about 80 ppm to a normal feed (“Healthy Pig” (registered trademark)) for the weaning period; and feeds prepared by adding coenzyme Q10 at 40 ppm to normal feeds (“Take Five” for the former half of the piglet period, “Nobita kun” for the latter half of the piglet period, and “NIC Niku Buta EX” for the fattening period). The piglets were reared and managed in a common manner. In all the periods, control groups were set up for each to which coenzyme Q10 was not administered, and the control group was also reared in a common manner.
The “weaning period” refers to the period from the 3rd day until 26th day after birth, and the “piglet period” refers to the period from the 27th day until the 84th day after birth.

[7] = 60 ppm in feed, vs periods in which coenzyme Q10 was not administered
[8] = piglets born to mother sows fed 60 ppm, vs piglets reared in a conventional manner
[9] = early pregnancy, 100 ppm, compared to the control group

Question: For `COC1=C(OC)C(=O)C(C/C=C(\C)CC/C=C(\C)CC/C=C(\C)CC/C=C(\C)CC/C=C(\C)CC/C=C(\C)CC/C=C(\C)CC/C=C(\C)CC/C=C(\C)CCC=C(C)C)=C(C)C1=O` [coenzyme Q10], which “Weight at weaning (average, kg)” value (mother sows [1]; Test group A: middle pregnancy, 100 ppm in feed of mother sows) is on record?
Answer: 8.37 kg

Question: And the “Weight at weaning (average, kg)” value (mother sows [1]; Test group B: middle pregnancy, 400 ppm in feed of mother sows)?
Answer: 8.26 kg

Question: What about the “Weight at weaning (average, kg)” value (mother sows [1]; Test group C: late pregnancy, 100 ppm in feed of mother sows) of the same molecule?
Answer: 8.55 kg

Question: What about the “Weight at weaning (average, kg)” value (mother sows [1]; Test group D: late pregnancy, 400 ppm in feed of mother sows) of the same molecule?
Answer: 8.51 kg

Question: What about the weight at birth (mother sows [1]; test groups (100 or 400 ppm, middle or late pregnancy) vs control group) of the same molecule?
Answer: not so different

Question: And the “coenzyme Q10 content in colostrum” value [2]?
Answer: apparently higher

Question: What about the frequency of albinism (mother sows [3]; [7]) of the same molecule?
Answer: decreased

Question: And the frequency of mummified (mother sows [3]; [7])?
Answer: decreased

Question: What about the “number of milk-fed piglets” value (mother sows [3]; [7]) of the same molecule?
Answer: increased

Question: And the “number of total births” value (mother sows [3]; [7])?
Answer: increased

Question: And the “number of weaned piglets” value (mother sows [3]; [7])?
Answer: increased

Question: And the “body weight of piglets after three weeks from birth” value (mother sows [3]; [8])?
Answer: heavier

Question: And the “episodes of diarrhea in piglets” value (mother sows [3]; [8])?
Answer: less episodes

Question: And the “Number of weaned piglets (average per mother sow)” value (shortened to “Number … (average per mother sow)”) (mother sows [4]; Test group E: early pregnancy)?
Answer: 10.4

Question: What about the “Number … (average per mother sow)” value (mother sows [4]; Test group F: middle pregnancy) of the same molecule?
Answer: 9.6

Question: And the “Number … (average per mother sow)” value (mother sows [4]; Test group G: late pregnancy)?
Answer: 9.7

Question: What about the “increase in the average number of weaned piglets per mother sow” value (mother sows [4]; [9]) of the same molecule?
Answer: not less than 1

Question: What about the “increase in the number of live births” value (mother sows [4]; [9]) of the same molecule?
Answer: not less than 1

Question: What about the “increase in the number of total births” value (mother sows [4]; [9]) of the same molecule?
Answer: not less than 1

Question: And the “interval of recurrent estrous” value (mother sows [5]; four months)?
Answer: 5.59 days

Question: What about the “shortening of the interval of recurrent estrous” value (mother sows [5]; test group vs control group) of the same molecule?
Answer: 0.33 days

Question: And the “fertility of second mating (pregnancy rate)” value (mother sows [6])?
Answer: 94%

Question: What about the “number of weaned piglets per mother sow” value (piglets) of the same molecule?
Answer: larger
